Data published in US6355799B1, “Substituted benzene compounds, process for their preparation, and herbicidal and defoliant compositions containing them” (ISK Americas Incorporated, priority 1997, dated 2002).

Legend:
Type in all cases: in vivo
[1] = tested on: upland rice (Oryza sp., var. Tebonnet, RICE); test: Post-emerge test, crop safety; conditions: 14 days after application; for Post-emerge phytotoxicity rating RICE (crop damage): rating scale 0-100 (0 no damage, 100 complete death)
Procedure, shortened: (§1)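 Herbicidal damage is scored 0 (none) to 100 (complete plant death) two weeks after a simulated field spray. Rates span 15–1000 g ai/ha, delivered in acetone at 187 l/ha. For post-emergence treatments, plants have 2–3 leaves and the spray carries 0.25% v/v non-ionic surfactant.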

[2] = tested on: field corn (Zea mays L., var. Dekalb 535, CORN); test: Post-emerge test, crop safety; conditions: 14 days after application; for Post-emerge phytotoxicity rating CORN (crop damage): rating scale 0-100 (0 no damage, 100 complete death)
Procedure, shortened: as §1

[3] = tested on: johnsongrass (Sorghum halepense, SORHA); test: Post-emerge test, greenhouse herbicide activity screening; conditions: 14 days after application; for Post-emerge Herbicidal Activity, phytotoxicity rating SORHA: rating scale 0-100 (0 no damage, 100 complete death)
Procedure, shortened: (§2)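 Visual ratings on a 0-100 scale (0 no damage, 100 all plants dead) were taken at 14 days after treatment. Rates of 15-1000 g ai/ha in acetone, 187 l/ha, were sprayed onto soil one day after planting (pre-emerge) or onto 2-3 leaf plants with 0.25% v/v surfactant (post-emerge).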

[4] = tested on: redroot pigweed (Amaranthus retroflexus, AMARE); test: as above; conditions: 14 days after application; for Post-emerge Herbicidal Activity, phytotoxicity rating AMARE: rating scale 0-100 (0 no damage, 100 complete death)
Procedure, shortened: as §2

[5] = tested on: common ragweed (Ambrosia artemisizfolia L., AMBEL); test: as above; conditions: 14 days after application
Procedure, shortened: as §2

[6] = tested on: barnyardgrass (Echinochloa crus-galli, ECHCG); test: as above; conditions: 14 days after application; for Post-emerge Herbicidal Activity, phytotoxicity rating ECHCG: rating scale 0-100 (0 no damage, 100 complete death)
Procedure, shortened: as §2

[7] = tested on: velvetleaf (Abutilon theophrasti, ABUTH); test: as above; conditions: 14 days after application; for Post-emerge Herbicidal Activity, phytotoxicity rating ABUTH: rating scale 0-100 (0 no damage, 100 complete death)
Procedure, shortened: as §2

[8] = tested on: sicklepod (Cassia obtusifolia, CASOB); test: as above; conditions: 14 days after application; for Post-emerge Herbicidal Activity, phytotoxicity rating CASOB: rating scale 0-100 (0 no damage, 100 complete death)
Procedure, shortened: as §2

[9] = tested on: lambsquarters (Chenopodium album, CHEAL); test: as above; conditions: 14 days after application; for Post-emerge Herbicidal Activity, phytotoxicity rating CHEAL: rating scale 0-100 (0 no damage, 100 complete death)
Procedure, shortened: as §2

[10] = tested on: ivyleaf morningglory (Ipomoea hederacea, IPOHE); test: as above; conditions: 14 days after application; for Post-emerge Herbicidal Activity, phytotoxicity rating IPOHE: rating scale 0-100 (0 no damage, 100 complete death)
Procedure, shortened: as §2

[11] = tested on: green foxtail (Setaria viridis, SETVI); test: as above; conditions: 14 days after application; for Post-emerge Herbicidal Activity, phytotoxicity rating SETVI: rating scale 0-100 (0 no damage, 100 complete death)
Procedure, shortened: as §2

[12] = tested on: large crabgrass (Digitaria sanguinalis, DIGSA); test: as above; conditions: 14 days after application; for Post-emerge Herbicidal Activity, phytotoxicity rating DIGSA: rating scale 0-100 (0 no damage, 100 complete death)
Procedure, shortened: as §2

[13] = tested on: redroot pigweed (Amaranthus retroflexus, AMARE); test: Pre-emerge test, greenhouse herbicide activity screening; conditions: pre-emerge; for phytotoxicity rating AMARE: 14 days after application, rating scale 0-100
Procedure, shortened: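 Compounds in acetone were track-sprayed at 187 l/ha, 15–1000 g ai/ha, onto sandy loam pots. Pre-emerge seeds were sown one day before spraying, with surface watering afterwards. Post-emerge plants were at the 2–3 leaf stage and sprayed with 0.25% v/v non-ionic surfactant. Injury was rated 0–100 at 14 days.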

[14] = tested on: johnsongrass (Sorghum halepense, SORHA); test: as above; conditions: pre-emerge; for phytotoxicity rating SORHA: 14 days after application, rating scale 0-100
Procedure, shortened: as §1

[15] = tested on: common ragweed (Ambrosia artemisizfolia L., AMBEL); test: as above; conditions: pre-emerge; for phytotoxicity rating AMBEL: 14 days after application, rating scale 0-100
Procedure, shortened: as §1

[16] = tested on: barnyardgrass (Echinochloa crus-galli, ECHCG); test: as above; conditions: pre-emerge; for phytotoxicity rating ECHCG: 14 days after application, rating scale 0-100
Procedure, shortened: as §1

[17] = tested on: velvetleaf (Abutilon theophrasti, ABUTH); test: as above; conditions: pre-emerge; for phytotoxicity rating ABUTH: 14 days after application, rating scale 0-100
Procedure, shortened: as §1

[18] = tested on: sicklepod (Cassia obtusifolia, CASOB); test: as above; conditions: pre-emerge; for phytotoxicity rating CASOB: 14 days after application, rating scale 0-100
Procedure, shortened: as §1

[19] = tested on: lambsquarters (Chenopodium album, CHEAL); test: as above; conditions: pre-emerge; for phytotoxicity rating CHEAL: 14 days after application, rating scale 0-100
Procedure, shortened: as §1

[20] = tested on: ivyleaf morningglory (Ipomoea hederacea, IPOHE); test: as above; conditions: pre-emerge; for phytotoxicity rating IPOHE: 14 days after application, rating scale 0-100
Procedure, shortened: as §1

[21] = tested on: green foxtail (Setaria viridis, SETVI); test: as above; conditions: pre-emerge; for phytotoxicity rating SETVI: 14 days after application, rating scale 0-100
Procedure, shortened: as §1

[22] = tested on: large crabgrass (Digitaria sanguinalis, DIGSA); test: as above; conditions: pre-emerge; for phytotoxicity rating DIGSA: 14 days after application, rating scale 0-100
Procedure, shortened: as §1

[23] = tested on: upland rice (Oryza sp., var. Tebonnet, RICE); test: Pre-emerge test, crop safety; conditions: pre-emerge; for phytotoxicity rating RICE: 14 days after application, rating scale 0-100
Procedure, shortened: (§3)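 Rating: 0–100 visual injury, 14 DAA. Application: acetone, 187 l/ha, 15–1000 g ai/ha, flat-fan track sprayer with nozzle 40–45 cm above soil or canopy. Post-emerge runs used 0.25% v/v surfactant on 2–3 leaf plants.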

[24] = tested on: field corn (Zea mays L., var. Dekalb 535, CORN); test: Pre-emerge test, crop safety; conditions: pre-emerge; for phytotoxicity rating CORN: 14 days after application, rating scale 0-100
Procedure, shortened: as §3

[25] = 63 g ai/ha, phytotoxicity rating 0-100 (0 no damage, 100 complete death)
[26] = 63 g ai/ha, rated 14 days after application, 0 = no damage, 100 = complete death

SMILES: COc1c(Cl)cc(F)c(-n2c(=O)cc(C(F)(F)F)n(C)c2=O)c1CC(C)(Cl)C(=O)OCCSC (centres unmarked) [14-48]
- Post-emerge phytotoxicity rating RICE (crop damage) ([1]; Rate 63 g ai/ha): 70
- Post-emerge phytotoxicity rating RICE (crop damage) ([1]; Rate 250 g ai/ha): 100
- Post-emerge phytotoxicity rating CORN (crop damage) ([2]; Rate 63 g ai/ha): 40
- Post-emerge phytotoxicity rating CORN (crop damage) ([2]; Rate 250 g ai/ha): 100
- Post-emerge Herbicidal Activity, phytotoxicity rating SORHA ([3]; Rate 63 g ai/ha): 0
- Post-emerge Herbicidal Activity, phytotoxicity rating SORHA ([3]; Rate 250 g ai/ha): 90
- Post-emerge Herbicidal Activity, phytotoxicity rating AMARE ([4]; Rate 63 g ai/ha): 100
- Post-emerge Herbicidal Activity, phytotoxicity rating AMARE ([4]; Rate 250 g ai/ha): 100
- Post-emerge Herbicidal Activity, phytotoxicity rating AMBEL ([5]; Rate 63 g ai/ha, rating scale 0-100 (0 no damage, 100 complete death)): 80
- Post-emerge Herbicidal Activity, phytotoxicity rating ECHCG ([6]; Rate 63 g ai/ha): 50
- Post-emerge Herbicidal Activity, phytotoxicity rating ECHCG ([6]; Rate 250 g ai/ha): 100
- Post-emerge Herbicidal Activity, phytotoxicity rating ABUTH ([7]; Rate 63 g ai/ha): 100
- Post-emerge Herbicidal Activity, phytotoxicity rating ABUTH ([7]; Rate 250 g ai/ha): 100
- Post-emerge Herbicidal Activity, phytotoxicity rating CASOB ([8]; Rate 63 g ai/ha): 0
- Post-emerge Herbicidal Activity, phytotoxicity rating CASOB ([8]; Rate 250 g ai/ha): 100
- Post-emerge Herbicidal Activity, phytotoxicity rating CHEAL ([9]; Rate 63 g ai/ha): 100
- Post-emerge Herbicidal Activity, phytotoxicity rating CHEAL ([9]; Rate 250 g ai/ha): 100
- Post-emerge Herbicidal Activity, phytotoxicity rating IPOHE ([10]; Rate 63 g ai/ha): 0
- Post-emerge Herbicidal Activity, phytotoxicity rating IPOHE ([10]; Rate 250 g ai/ha): 100
- Post-emerge Herbicidal Activity, phytotoxicity rating SETVI ([11]; Rate 63 g ai/ha): 50
- Post-emerge Herbicidal Activity, phytotoxicity rating SETVI ([11]; Rate 250 g ai/ha): 100
- Post-emerge Herbicidal Activity, phytotoxicity rating DIGSA ([12]; Rate 63 g ai/ha): 70
- Post-emerge Herbicidal Activity, phytotoxicity rating DIGSA ([12]; Rate 250 g ai/ha): 90
- phytotoxicity rating AMARE ([13]; 63 g ai/ha): 90
- phytotoxicity rating AMARE ([13]; 250 g ai/ha): 100
- phytotoxicity rating SORHA ([14]; 63 g ai/ha): 0
- phytotoxicity rating SORHA ([14]; 250 g ai/ha): 0
- phytotoxicity rating AMBEL ([15]; 63 g ai/ha): 0
- phytotoxicity rating AMBEL ([15]; 250 g ai/ha): 80
- phytotoxicity rating ECHCG ([16]; 63 g ai/ha): 0
- phytotoxicity rating ECHCG ([16]; 250 g ai/ha): 50
- phytotoxicity rating ABUTH ([17]; 63 g ai/ha): 90
- phytotoxicity rating ABUTH ([17]; 250 g ai/ha): 100
- phytotoxicity rating CASOB ([18]; 63 g ai/ha): 0
- phytotoxicity rating CASOB ([18]; 250 g ai/ha): 0
- phytotoxicity rating CHEAL ([19]; 63 g ai/ha): 50
- phytotoxicity rating CHEAL ([19]; 250 g ai/ha): 100
- phytotoxicity rating IPOHE ([20]; 63 g ai/ha): 0
- phytotoxicity rating IPOHE ([20]; 250 g ai/ha): 0
- phytotoxicity rating SETVI ([21]; 63 g ai/ha): 0
- phytotoxicity rating SETVI ([21]; 250 g ai/ha): 50
- phytotoxicity rating DIGSA ([22]; 63 g ai/ha): 0
- phytotoxicity rating DIGSA ([22]; 250 g ai/ha): 70
- phytotoxicity rating RICE ([23]; 63 g ai/ha): 30
- phytotoxicity rating RICE ([23]; 250 g ai/ha): 70
- phytotoxicity rating CORN ([24]; 63 g ai/ha): 0
- phytotoxicity rating CORN ([24]; 250 g ai/ha): 40

SMILES: COc1c(Cl)cc(F)c(-n2c(=O)c([N+](=O)[O-])c(C(F)(F)F)n(C)c2=O)c1[N+](=O)[O-] [Compound 1-9]
- Post-emerge Herbicidal Activity RICE (crop damage) [1, 25]: 40
- Post-emerge Herbicidal Activity CORN (crop damage) [2, 25]: 30
- Post-emerge Herbicidal Activity SORHA [3, 25]: 90
- Post-emerge Herbicidal Activity AMARE [4, 25]: 100
- Post-emerge Herbicidal Activity AMBEL [5, 25]: 90
- Post-emerge Herbicidal Activity ECHCG [6, 25]: 70
- Post-emerge Herbicidal Activity ABUTH [7, 25]: 100
- Post-emerge Herbicidal Activity CASOB [8, 25]: 90
- Post-emerge Herbicidal Activity CHEAL [9, 25]: 100
- Post-emerge Herbicidal Activity IPOHE [10, 25]: 100
- Post-emerge Herbicidal Activity SETVI [11, 25]: 90
- Post-emerge Herbicidal Activity DIGSA [12, 25]: 90
- Pre-emerge Herbicidal Activity AMARE (phytotoxicity rating, scale 0-100) [13, 26]: 100
- Pre-emerge Herbicidal Activity SORHA (phytotoxicity rating, scale 0-100) [14, 26]: 100
- Pre-emerge Herbicidal Activity AMBEL (phytotoxicity rating, scale 0-100) [15, 26]: 100
- Pre-emerge Herbicidal Activity ECHCG (phytotoxicity rating, scale 0-100) [16, 26]: 100
- Pre-emerge Herbicidal Activity ABUTH (phytotoxicity rating, scale 0-100) [17, 26]: 100
- Pre-emerge Herbicidal Activity CASOB (phytotoxicity rating, scale 0-100) [18, 26]: 100
- Pre-emerge Herbicidal Activity CHEAL (phytotoxicity rating, scale 0-100) [19, 26]: 100
- Pre-emerge Herbicidal Activity IPOHE (phytotoxicity rating, scale 0-100) [20, 26]: 100
- Pre-emerge Herbicidal Activity SETVI (phytotoxicity rating, scale 0-100) [21, 26]: 100
- Pre-emerge Herbicidal Activity DIGSA (phytotoxicity rating, scale 0-100) [22, 26]: 100
- Pre-emerge crop damage RICE (phytotoxicity rating, scale 0-100) [23, 26]: 95
- Pre-emerge crop damage CORN (phytotoxicity rating, scale 0-100) [24, 26]: 90
